Converted amounts (≈) assume the structure as drawn. Structures can show the parent of a compound that is named as a salt.
Assays:
[1] = system: S. aureus M 126 (Methicillin-hyperresistant strain); experiment: Antimicrobial activities, MIC; type: cell-based; conditions: Sensitivity Disk agar-N+5% Horse blood, inoculants 10^6 CFU/ml
Experimental: (§1) The minimum inhibiting concentrations (MIC, μg/ml) of representative compounds, among the novel carbapenem derivatives of the present invention, to various pathogenic bacteria were measured in accordance with the method described in CHEMOTHERAPY, vol. 16, No. 1, 99, 1968. The culture medium for the measurement is Sensitivity Disk agar-N+5% Horse blood, and the amount of inoculants used is 10^6 CFU/ml.

H. influenzae PRC 44 = experiment: Antimicrobial activities, MIC; type: cell-based; conditions: inoculants 10^6 CFU/ml; for minimum inhibiting concentrations (MIC): Sensitivity Disk agar-N+5% Horse blood
Experimental: as §1

[2] = system: S. pneumoniae PRC 9 (Penicillin-hyperresistant strain); experiment: Antimicrobial activities, MIC; type: cell-based; conditions: Sensitivity Disk agar-N+5% Horse blood, inoculants 10^6 CFU/ml
Experimental: as §1

E. faecalis W-73 = experiment: Antimicrobial activities, MIC; type: cell-based; conditions: inoculants 10^6 CFU/ml; for minimum inhibiting concentrations (MIC): Sensitivity Disk agar-N+5% Horse blood
Experimental: as §1

P. vulgaris GN 7919 = experiment: Antimicrobial activities, MIC; type: cell-based; conditions: inoculants 10^6 CFU/ml; for minimum inhibiting concentrations (MIC): Sensitivity Disk agar-N+5% Horse blood
Experimental: as §1

H. influenzae PRC 2 = experiment: Antimicrobial activities, MIC; type: cell-based; conditions: inoculants 10^6 CFU/ml; for minimum inhibiting concentrations (MIC): Sensitivity Disk agar-N+5% Horse blood
Experimental: as §1

K. pneumoniae PC 1602 = experiment: Antimicrobial activities, MIC; type: cell-based; conditions: inoculants 10^6 CFU/ml; for minimum inhibiting concentrations (MIC): Sensitivity Disk agar-N+5% Horse blood
Experimental: as §1

S. aureus 209P JC-1 = experiment: Antimicrobial activities, MIC; type: cell-based; conditions: Sensitivity Disk agar-N+5% Horse blood, inoculants 10^6 CFU/ml
Experimental: as §1

E. coli NIHJ JC-2 = experiment: Antimicrobial activities, MIC; type: cell-based; conditions: inoculants 10^6 CFU/ml; for minimum inhibiting concentrations (MIC): Sensitivity Disk agar-N+5% Horse blood
Experimental: as §1

E. hirae ATCC 8043 = experiment: Antimicrobial activities, MIC; type: cell-based; conditions: inoculants 10^6 CFU/ml; for minimum inhibiting concentrations (MIC): Sensitivity Disk agar-N+5% Horse blood
Experimental: as §1

[3] = system: S. epidermidis ATCC 14990; experiment: Antimicrobial activities, MIC; type: cell-based; conditions: inoculants 10^6 CFU/ml; for minimum inhibiting concentrations (MIC): Sensitivity Disk agar-N+5% Horse blood
Experimental: as §1

C. freundii GN 346 = experiment: Antimicrobial activities, MIC; type: cell-based; conditions: inoculants 10^6 CFU/ml; for minimum inhibiting concentrations (MIC): Sensitivity Disk agar-N+5% Horse blood
Experimental: as §1

B. catarrhalis W-0500 = experiment: Antimicrobial activities, MIC; type: cell-based; conditions: inoculants 10^6 CFU/ml; for minimum inhibiting concentrations (MIC): Sensitivity Disk agar-N+5% Horse blood
Experimental: as §1

mice (ICR, male) = experiment: Acute Toxicity Test; type: in vivo; conditions: intraveneously administered, 2000 mg/kg, one group of three mice
Experimental: The compound of Example 3 according to the present invention was intraveneously administered at a dose of 2000 mg/kg to mice (ICR, male) (one group consisting of three mice).

[4] = Staphylococcus aureus, read-out: minimum inhibiting concentrations (MIC)

## C[C@@H](O)[C@H]1C(=O)N2C(C(=O)O)=C(SCCN=CN)C[C@H]12 [Compound A, Imipenem, reference compound]
[1]; [4]
  MIC: 25 µg/mL (≈ 83.5 µM)
H. influenzae PRC 44; Haemophilus influenzae, PRC44, Sensitivity Disk agar-N+5% Horse blood, read-out: minimum inhibiting concentrations (MIC)
  MIC: 12.5 µg/mL (≈ 41.8 µM)
[2]; Streptococcus pneumoniae, read-out: minimum inhibiting concentrations (MIC)
  MIC: 0.2 µg/mL (≈ 0.668 µM)
E. faecalis W-73; Enterococcus faecalis, W73, Sensitivity Disk agar-N+5% Horse blood, read-out: minimum inhibiting concentrations (MIC)
  MIC: 0.78 µg/mL (≈ 2.61 µM)
P. vulgaris GN 7919; Proteus vulgaris, GN7919, Sensitivity Disk agar-N+5% Horse blood, read-out: minimum inhibiting concentrations (MIC)
  MIC: 0.1 µg/mL (≈ 0.334 µM)
H. influenzae PRC 2; Haemophilus influenzae, PRC2, Sensitivity Disk agar-N+5% Horse blood, read-out: minimum inhibiting concentrations (MIC)
  MIC: 0.79 µg/mL (≈ 2.64 µM)
K. pneumoniae PC 1602; Klebsiella pneumoniae, PC1602, Sensitivity Disk agar-N+5% Horse blood, read-out: minimum inhibiting concentrations (MIC)
  MIC: 0.2 µg/mL (≈ 0.668 µM)
S. aureus 209P JC-1; [4]
  MIC: < 0.025 µg/mL
E. coli NIHJ JC-2; Escherichia coli, NIHJJC2, Sensitivity Disk agar-N+5% Horse blood, read-out: minimum inhibiting concentrations (MIC)
  MIC: 0.1 µg/mL (≈ 0.334 µM)
E. hirae ATCC 8043; Enterococcus hirae, ATCC8043, Sensitivity Disk agar-N+5% Horse blood, read-out: minimum inhibiting concentrations (MIC)
  MIC: 0.78 µg/mL (≈ 2.61 µM)
[3]; Staphylococcus epidermidis, ATCC14990, Sensitivity Disk agar-N+5% Horse blood, read-out: minimum inhibiting concentrations (MIC)
  MIC: < 0.025 µg/mL
C. freundii GN 346; Citrobacter freundii, GN346, Sensitivity Disk agar-N+5% Horse blood, read-out: minimum inhibiting concentrations (MIC)
  MIC: 0.2 µg/mL (≈ 0.668 µM)
B. catarrhalis W-0500; Moraxella catarrhalis, W0500, Sensitivity Disk agar-N+5% Horse blood, read-out: minimum inhibiting concentrations (MIC)
  MIC: 0.05 µg/mL (≈ 0.167 µM)

## C[C@@H](O)[C@H]1C(=O)N2C(C(=O)[O-])=C(c3cn4c[n+](C)cc4s3)[C@H](C)[C@H]12 [Compound B, (1S,5R,6S)-6-((1R)-1-Hydroxyethyl)-1-methyl-2-(6-methylimidazo[5,1-b]thiazolium-2-yl)-1-carbapen-2-em-3-carboxylate (intramolecular salt), reference compound]
[1]
  minimum inhibiting concentrations (MIC): 3.13 µg/mL
H. influenzae PRC 44
  minimum inhibiting concentrations (MIC): 0.39 µg/mL
[2]
  minimum inhibiting concentrations (MIC): 0.05 µg/mL
E. faecalis W-73
  minimum inhibiting concentrations (MIC): 0.20 µg/mL
P. vulgaris GN 7919
  minimum inhibiting concentrations (MIC): 0.20 µg/mL
H. influenzae PRC 2
  minimum inhibiting concentrations (MIC): 0.10 µg/mL
K. pneumoniae PC 1602
  minimum inhibiting concentrations (MIC): 0.10 µg/mL
S. aureus 209P JC-1
  minimum inhibiting concentrations (MIC): <0.025 µg/mL
E. coli NIHJ JC-2
  minimum inhibiting concentrations (MIC): <0.025 µg/mL
E. hirae ATCC 8043
  minimum inhibiting concentrations (MIC): 0.78 µg/mL
[3]
  minimum inhibiting concentrations (MIC): <0.025 µg/mL
C. freundii GN 346
  minimum inhibiting concentrations (MIC): 0.10 µg/mL
B. catarrhalis W-0500
  minimum inhibiting concentrations (MIC): <0.025 µg/mL

## CSc1c2sc(C3=C(C(=O)[O-])N4C(=O)[C@H]([C@@H](C)O)[C@H]4[C@H]3C)cn2c[n+]1C [Example 2, (1S,5R,6S)-6-((1R)-1-hydroxyethyl)-1-methyl-2-(6-methyl-7-methylthioimidazo[5,1-b]thiazolium-2-yl)-1-carbapen-2-em-3-carboxylate (intramolecular salt)]
[1]
  minimum inhibiting concentrations (MIC): 1.56 µg/mL
H. influenzae PRC 44
  minimum inhibiting concentrations (MIC): 0.20 µg/mL
[2]
  minimum inhibiting concentrations (MIC): 0.025 µg/mL
E. faecalis W-73
  minimum inhibiting concentrations (MIC): 0.20 µg/mL
P. vulgaris GN 7919
  minimum inhibiting concentrations (MIC): 0.20 µg/mL
H. influenzae PRC 2
  minimum inhibiting concentrations (MIC): 0.05 µg/mL
K. pneumoniae PC 1602
  minimum inhibiting concentrations (MIC): 0.10 µg/mL
S. aureus 209P JC-1
  minimum inhibiting concentrations (MIC): <0.025 µg/mL
E. coli NIHJ JC-2
  minimum inhibiting concentrations (MIC): 0.025 µg/mL
E. hirae ATCC 8043
  minimum inhibiting concentrations (MIC): 0.78 µg/mL
[3]
  minimum inhibiting concentrations (MIC): <0.025 µg/mL
C. freundii GN 346
  minimum inhibiting concentrations (MIC): 0.10 µg/mL
B. catarrhalis W-0500
  minimum inhibiting concentrations (MIC): 0.025 µg/mL

## CSc1c2sc(C3=C(C(=O)[O-])N4C(=O)[C@H]([C@@H](C)O)[C@H]4[C@H]3C)cn2c[n+]1CC(N)=O [Example 3, (1S,5R,6S)-2-(6-carbamoylmethyl-7-methylthioimidazo[5,1-b]thiazolium-2-yl)-6-((1R)-1-hydroxyethyl)-1-methyl-1-carbapen-2-em-3-carboxylate (intramolecular salt)]
[1]
  minimum inhibiting concentrations (MIC): 1.56 µg/mL
H. influenzae PRC 44
  minimum inhibiting concentrations (MIC): 0.20 µg/mL
[2]
  minimum inhibiting concentrations (MIC): 0.025 µg/mL
E. faecalis W-73
  minimum inhibiting concentrations (MIC): 0.20 µg/mL
P. vulgaris GN 7919
  minimum inhibiting concentrations (MIC): 0.20 µg/mL
H. influenzae PRC 2
  minimum inhibiting concentrations (MIC): 0.05 µg/mL
K. pneumoniae PC 1602
  minimum inhibiting concentrations (MIC): 0.10 µg/mL
S. aureus 209P JC-1
  minimum inhibiting concentrations (MIC): <0.025 µg/mL
E. coli NIHJ JC-2
  minimum inhibiting concentrations (MIC): 0.025 µg/mL
E. hirae ATCC 8043
  minimum inhibiting concentrations (MIC): 0.39 µg/mL
[3]
  minimum inhibiting concentrations (MIC): <0.025 µg/mL
C. freundii GN 346
  minimum inhibiting concentrations (MIC): 0.20 µg/mL
B. catarrhalis W-0500
  minimum inhibiting concentrations (MIC): 0.025 µg/mL
Mice (ICR, male)
  survival in acute toxicity test: all the mice survived

## CSc1c2sc(C3=C(C(=O)[O-])N4C(=O)[C@H]([C@@H](C)O)[C@H]4[C@H]3C)cn2c[n+]1CCCN.Cl [Example 14, (1S,5R,6S)-2-[6-(3-aminopropyl)-7-methylthioimidazo[5,1-b]thiazolium-2-yl]-6-((1R)-1-hydroxyethyl)-1-methyl-1-carbapen-2-em-3-carboxylate (intramolecular salt) hydrochloride]
[1]
  minimum inhibiting concentrations (MIC): 0.39 µg/mL
H. influenzae PRC 44
  minimum inhibiting concentrations (MIC): 0.78 µg/mL
[2]
  minimum inhibiting concentrations (MIC): 0.025 µg/mL
E. faecalis W-73
  minimum inhibiting concentrations (MIC): 0.20 µg/mL
P. vulgaris GN 7919
  minimum inhibiting concentrations (MIC): 0.39 µg/mL
H. influenzae PRC 2
  minimum inhibiting concentrations (MIC): 0.05 µg/mL
K. pneumoniae PC 1602
  minimum inhibiting concentrations (MIC): 0.10 µg/mL
S. aureus 209P JC-1
  minimum inhibiting concentrations (MIC): <0.025 µg/mL
E. coli NIHJ JC-2
  minimum inhibiting concentrations (MIC): 0.05 µg/mL
E. hirae ATCC 8043
  minimum inhibiting concentrations (MIC): 0.39 µg/mL
[3]
  minimum inhibiting concentrations (MIC): <0.025 µg/mL
C. freundii GN 346
  minimum inhibiting concentrations (MIC): 0.10 µg/mL
B. catarrhalis W-0500
  minimum inhibiting concentrations (MIC): 0.025 µg/mL

## CSc1c2sc(C3=C(C(=O)[O-])N4C(=O)[C@H]([C@@H](C)O)[C@H]4[C@H]3C)cn2c[n+]1C[C@H](O)CN.Cl [Example 99, (1S,5R,6S)-2-[6-((2R)-3-amino-2-hydroxy)propyl-7-methylthioimidazo[5,1-b]thiazolium-2-yl]-6-((1R)-1-hydroxyethyl)-1-methyl-1-carbapen-2-em-3-carboxylate (intramolecular salt) hydrochloride]
[1]
  minimum inhibiting concentrations (MIC): 0.78 µg/mL
H. influenzae PRC 44
  minimum inhibiting concentrations (MIC): 0.78 µg/mL
[2]
  minimum inhibiting concentrations (MIC): 0.05 µg/mL
E. faecalis W-73
  minimum inhibiting concentrations (MIC): 0.20 µg/mL
P. vulgaris GN 7919
  minimum inhibiting concentrations (MIC): 0.39 µg/mL
H. influenzae PRC 2
  minimum inhibiting concentrations (MIC): 0.10 µg/mL
K. pneumoniae PC 1602
  minimum inhibiting concentrations (MIC): 0.10 µg/mL
S. aureus 209P JC-1
  minimum inhibiting concentrations (MIC): <0.025 µg/mL
E. coli NIHJ JC-2
  minimum inhibiting concentrations (MIC): 0.05 µg/mL
E. hirae ATCC 8043
  minimum inhibiting concentrations (MIC): 0.39 µg/mL
[3]
  minimum inhibiting concentrations (MIC): <0.025 µg/mL
C. freundii GN 346
  minimum inhibiting concentrations (MIC): 0.20 µg/mL
B. catarrhalis W-0500
  minimum inhibiting concentrations (MIC): 0.05 µg/mL

Source: patent US6825187B2, “Carbapenem derivatives of quarternary salt type” (Meiji Seika Kaisha, Ltd., priority 2000, dated 2004)
